Experimental data taken from PMC6429459, “The HslV Protease from Leishmania major and Its Activation by C-terminal HslU Peptides” (International Journal of Molecular Sciences, 2019).
Entries after “also recorded” stand apart in the source; their conditions may differ. Square brackets hold non-standard residues; d marks the D form. Peptide text beside a SMILES is read from it. * marks the point of attachment. AMC = Cc1cc(=O)oc2cc(N*)ccc12; Cbz = O=C(OCc1ccccc1)*; AEEA = NCCOCCOCC(=O)O

Columns and labels:
[1] = tested on: recombinant LmHslV; test: LmHslV peptidase activation by HslU C-terminal peptides, substrate Z-EVNL-AMC (JMV4482); type: biochemical, Leishmania major; details: for LmHslV activation relative to reference peptide 10 (LmC12-U2): LmHslV 75.2 nM, initial velocity normalised to 10 = 100%, Figure 3; for LmHslV activation, Ala-scan, D-scan and truncations, relative to LmC12-U2: LmHslV 2 μg, 30 min at 37 °C, JMV4482 (Z-EVNL-AMC) 100 μM, Figure 4
Description: (§1) Activity assay: The peptidase activity of recombinant LmHslV was assessed by measuring the fluorescence of AMC released after hydrolysis of the fluorogenic substrates Z-GGL-AMC or JMV4482 (Z-EVNL-AMC), 100 µM. LmHslV activation was obtained by addition of activating peptides (see type and concentration in the figure legends). Activity buffer: 25 mM Tris-HCl pH 8.0, 1 mM DTT, 0.5 mM EDTA and 5 mM MgCl2. Most of the experiments were performed in a final volume of 50 µL in black 96-well microplates (Fisher Scientific, Illkirch, France. Fluorescence was measured using a spectrofluorimeter (BIO-TEK Instrument, Inc., Winooski, VT, USA): filters 360/340 for excitation and 460/440 for emission.
Figure 3 Both peptides derived from the C-terminal end of either LmHslU1 or LmHslU2 and analogues from other microorganisms are able to support LmHslV activation. LmHslV (75,2nM) was incubated at 37 °C with the peptide substrate Z-EVNL-AMC (100 μM) in the presence of peptides 8–11 and 1–15 (500 μM). A scrambled version of LmC12-U2 (44) was also included. The fluorescence of the free AMC group, proportional to the activity of the sample, was measured at 2 min. intervals.
Figure 4 Sequence requirements for activation of LmHslV by C-terminal LmHslU2 peptides. (A) Alascan. Percentage of initial velocity relative to compound LmC12-U2. Fluorescence was measured for 30 min incubation at 37 °C of LmHslV (2 μg) with 100 μM JMV4482 (Z-EVNL-AMC) in the presence of 500 μM peptides. (B) D-scan. Percentage of initial velocity relative to compound LmC12-U2. Activity was measured as in (A). (C) Truncated peptides. Percentage of activity relative to compound LmC12-U2, measured as in (A).
Figure 5 Effect of conformational constraints on HslV activation by HslU C-terminal peptides. HslV activity was measured in the presence of various cyclic analogues of LmC12-U2 and LmC9-U2. Values are expressed as percentage of initial velocity relative to compound LmC12-U2.
Figure S3. Effect of LmC12-U2 dimerization. LmHslV has been incubated at 37°C for 30 min with […]
the substrate Z-EVNL-AMC (100µM). The fluorescence generated by the cleavage of the substrate was recorded at 5 min intervals. The dotted line represents the ratio at each time point between the fluorescence values obtained with the two peptides.
(also on this page, place not known: dimerization . ( 12), Di-C12 / C12 Fluorescence (arbitrary unit) Ratio)

[2] = Solubility in aqueous assay solutions (observation); details: aqueous assay conditions, peptide concentrations in the millimolar range; in words
[3] = tested on: recombinant LmHslV; test: LmHslV peptidase activation by HslU C-terminal peptides, substrate Z-GGL-AMC; type: biochemical, Leishmania major; details: in words; for Activation of LmHslV (AMC fluorescence liberated per minute): LmHslV 300 nM, 37 °C, Z-GGL-AMC 100 μM, peptide 2.2 mM, read every 15 min for 2 h, mean of two replicates, Figure 1
Description: as §1
Figure 1 Activation of LmHslV by HslU-derived peptides. (A) Activation of LmHslV by peptides corresponding to the 8 C-terminal residues of LmHslU1 (compound 1) and U2 (compound 4). LmHslV (300 nM) was incubated at 37 °C with the peptide substrate Z-GGL-AMC (100μM) in the presence of vehicle (left) or 2.2 mM of the peptides H-LmC8-U1 or Ac-LmC8-U2. The fluorescence of the free AMC group liberated by hydrolysis of the substrate, which is proportional to the proteolytic activity of the sample, was measured every 15 min for 2 h. The activity is calculated as fluorescence units liberated by the minute during the linear period of the assay. The values are the mean of two experimental replicates for a representative experiment; errors bars represent deviation from the mean of the values. (B) LmHslV can also be activated by octapeptides derived from the C-terminus of […] from E. coli. Assays were performed as in (A), using compounds 4 (Ac-LmC8-U2), 6 (H-EcC8-U) and 7 (Ac-EcC8-U).

[4] = tested on: LmHslV; test: Degradation of fluorogenic substrates by LmC12-U2-activated LmHslV; type: biochemical, Leishmania major; details: LmHslV 75.2 nM, 37 °C, substrate 100 μM, activating peptide LmC12-U2 500 μM; Figure 2; in words
Description: as §1
Figure 2 Degradation of different fluorogenic substrates by LmHslV. LmHslV (75.2 nM) was incubated at 37 °C with different fluorogenic substrates (100 μM) in the presence of the activating peptide LmC12-U2 (500 μM). The fluorescence of the free AMC group, proportional to the activity of the sample, was measured at 2 min. intervals. With each substrate, no activity was measured in the absence of activating peptide: for the sake of clarity, only the negative control values obtained with the substrate ZGGL-AMC are shown.

[5] = Circular dichroism, α-helix content from θ at 222 nm; type: physicochemical; details: for Helicity%: 25 mM Tris-HCl pH 8.0, 20 °C, 100% helicity for θ = −36,000; for θmre at 222 nm: 25 mM Tris-HCl pH 8.0, around 200 μM peptide, 20 °C, 1 mm cuvette, 3 scans
Description: CD spectra (Figure S2) were recorded on a JASCO J-815 spectropolarimeter from 190 to 260 nm (data pitch of 0.1 nm, continuous scanning mode, 200 nm/min, 3 scans) at 20 °C, using a 1 mm path length cuvette. Baseline was corrected by subtracting the background from the sample spectrum.
Peptides were solubilised in 50 mM Tris-HCl, pH 8.0 buffer at an estimated concentration of 400 μM according to their apparent molecular mass (i.e. M + xTFA with x = number of basic groups). The solutions were then diluted twice (25 mM Tris and around 200 μM peptides final concentrations) with: […]

[6] = 37 °C, Z-EVNL-AMC 100 μM, peptide 500 μM, in words

1,2,3-Triazole-1,4 = [CH2CH2CO-(O2Oc)3-Leu-Gln-Lys-Asn-Val-Asn-Leu-Ala-Lys-Tyr-Leu-Leu-OH]2 [Compound 12]
HslV activity with dimer relative to monomer 10 ([1]; LmHslV, 37 °C, 30 min, peptide 550 μM, Z-EVNL-AMC 100 μM, Figure S3, in words): about twice that reached with the monomer

CC[C@H](C)[C@H](NC(=O)[C@H](Cc1ccccc1)NC(=O)[C@H](CCCCN)NC(=O)[C@H](CCCCN)NC(=O)[C@@H](NC(=O)[C@H](CC(=O)O)NC(=O)[C@@H](NC(=O)[C@H](CCCCN)NC(=O)[C@H](CCCCN)NC(=O)[C@@H](NC(=O)[C@H](CCSC)NC(=O)COCCOCCNC(=O)[C@H](N)CCCNC(=N)N)C(C)C)C(C)C)[C@@H](C)CC)C(=O)N[C@@H](CC(C)C)C(=O)O [Compound 8] (H-[dR][AEEA]MVKKVDIKKFIL-OH)
Solubility of activating peptide [2]: significantly more soluble than C8-U1

Ac-EDLSRFIL-OH [Compound 7]
Activation of LmHslV (AMC fluorescence liberated per minute) [3]: also found to activate LmHslV

Ac-VNLAKYLL-OH [Compound 4]
Activation of LmHslV (AMC fluorescence liberated per minute) [3]: robust activation

Cbz-Gly-Gly-Leu-{AMC}
Degradation of fluorogenic substrate by activated LmHslV [4]: degraded by peptide-activated LmHslV

H-EDLSRFIL-OH [Compound 6]
Activation of LmHslV (AMC fluorescence liberated per minute) [3]: also found to activate LmHslV

H-VDIKKFIL-OH [Compound 1]
Activation of LmHslV (AMC fluorescence liberated per minute) [3]: able to activate the protease

H-arg-O2OC-Asn-Val-Asn-Leu-Ala-Lys-Tyr-Leu-Leu-OH [Compound 29]
Helicity% ([5]; 0% TFE): 5%
θmre at 222 nm ([5]; 0% TFE): −1711 deg.cm^2.dmol^−1
Helicity% ([5]; 25% TFE): 11%
θmre at 222 nm ([5]; 25% TFE): −4130 deg.cm^2.dmol^−1
Helicity% ([5]; 50% TFE): 13%
θmre at 222 nm ([5]; 50% TFE): −4733 deg.cm^2.dmol^−1

H-arg-O2Oc-Asn-Leu-Tyr-Lys-Leu-Val-Gln-Leu-Leu-Asn-Lys-Ala-OH [Compound 44]
LmHslV activation relative to reference peptide 10 (LmC12-U2) [1, 6]: no activity

H-arg-O2Oc-Leu-Gln-Lys-Asn-Val-Asn-Leu-Ala-Lys-Phe-Leu-Leu-OH [Compound 11]
LmHslV activation relative to reference peptide 10 (LmC12-U2) [1, 6]: decreased activity; also recorded: reverse effect

H-arg-O2Oc-Leu-Gln-Lys-Asn-Val-Asn-Leu-Ala-Lys-Tyr-Leu-Leu-OH [Compound 10]
LmHslV activation, Ala-scan, D-scan and truncations, relative to LmC12-U2 ([1]; peptide 500 μM, in words): by far the most potent activator
Activation of LmHslV compared with LmC8-U2 peptide 4 ([3]; substrate Z-GGL-AMC, preliminary experiments): much more efficiently than the LmC8-U2 peptide 4

H-arg-O2Oc-Leu-Gln-Lys-Asn-Val-Asn-Leu-ala-Lys-Tyr-Leu-Leu-OH [Compound 24]
LmHslV activation, Ala-scan, D-scan and truncations, relative to LmC12-U2 ([1]; peptide 500 μM, in words): residual activity
Decrease in activity relative to LmC12-U2 ([1]; Z-EVNL-AMC 100 μM, peptide 500 μM, D-scan): 80%
